{"source": "patent US20190269792A1", "about": "“NANOPARTICLE COMPOSITIONS COMPRISING CD38 AND METHODS OF USE THEREOF” (Washington University, priority 2016, published 2019)", "key": {"[1]": {"tested_on": "MM cell lines (MM.1S, H929, and RPMI8826)", "assay": "Cell viability of MM cells by MTT", "type": "cell-based, human", "conditions": "BTZ 5 nM or equivalent, 48 h"}, "PB MNCs": {"tested_on": "PB MNCs", "assay": "Cell viability of normal PB MNCs by MTT", "type": "cell-based, human", "conditions": "BTZ 5 nM or equivalent, 48 h", "procedure": "MM cell lines (MM.1S, H929, and RPMI8826) and PB MNCs were cultured with vehicle (control), BTZ as a free drug (5 nM), empty NPs, non-targeted NPs loaded with BTZ equivalent amounts to 5 nM, and anti-CD38 NPs loaded with BTZ equivalent amounts to 5 nM for 48 h. Cell viability was assessed using MTT solution followed by absorbance reading at 570 nm using a spectrophotometer as previously described. Briefly, the MTT solution was added to the cells 48 h after starting the treatment, and 2-4 h later the stop solution was added."}, "H929 cells [2]": {"tested_on": "H929 cells", "assay": "Cell cycle by propidium iodide flow cytometry", "type": "cell-based, human", "conditions": "BTZ 5 nM or equivalent, 48 h", "procedure": "Briefly, cells were washed, fixed with 70% ethanol, and washed again with PBS. RNA was degraded by incubation in RNAase for 30 minutes at 37° C., and the DNA was stained with PI solution for 10 minutes, then cells were analyzed by flow cytometry."}, "H929 cells [3]": {"tested_on": "H929 cells", "assay": "Apoptosis by Annexin V / PI flow cytometry", "type": "cell-based, human", "conditions": "BTZ 5 nM or equivalent, 48 h", "procedure": "H929 cells (1×10^6 cell/ml) were cultured with vehicle (control), BTZ as a free drug (5 nM), empty chitosan NPs, non-targeted chitosan NPs loaded with BTZ equivalent amounts to 5 nM, and anti-CD38 chitosan NPs loaded with BTZ equivalent amounts to 5 nM for 48 h, and apoptosis was analyzed as previously described. Cells were washed and resuspended in 1× Annexin binding buffer, incubated with Annexin V for 15 minutes followed by staining with PI for extra 15 minutes, 1× binding buffer was added, and the cells were analyzed with flow cytometry."}, "proteasome": {"tested_on": "proteasome", "assay": "Proteasome activity assay (AMC-tagged peptide substrate) in extracts of treated MM cells", "type": "cell-based, human", "conditions": "for effect of inhibition of macropinocytosis or endocytosis pathways on proteasome activity: free drug 5 nM with uptake inhibitors", "procedure": "Cell extracts were prepared in NP-40 lysis buffer from control and treated cells (BTZ as a free drug (5 nM), empty chitosan NPs, non-targeted chitosan NPs loaded with BTZ equivalent amounts to 5 nM, and anti-CD38 NPs loaded with BTZ equivalent amounts to 5 nM) retrieved after 2 h treatment with BTZ. Proteasome activity was determined using the AMC-tagged peptide substrate in a Proteasome Activity Assay Kit (abcam, Cambridge, Mass., USA) according to the manufacturer's protocol. Fluorescence was determined in a SpectraMax i3 Multi-Mode Detection Platform (Molecular Devices, Sunnyvale, Calif., USA) and proteasome activity was expressed as the amount of proteasome which generates 1.0 nmol of AMC per minute at 37° C.\nProteasome activity inhibition was also measured in combination with inhibitors of macropinocytosis and phagocytosis (cytochalasin D), clathrin-mediated endocytosis (chlorpromazine), caveolae-mediated endocytosis (nystatin), or late endocytosis (EGA), prior to exposure to anti-CD38 chitosan NPs loaded with BTZ equivalent amounts to 5 nM. MM cells were pre-incubated at 37° C. with no inhibitor (Ctrl), cytochalasin D 1 μM, chlorpromazine 2 μM, nystatin 0.5 μg/ml, and EGA 2.5 μM for 30 min. Cells were washed with PBS and incubated with anti-CD38 chitosan NPs loaded with BTZ equivalent amounts to 5 nM, then proteasome Activity Assay Kit was followed as in the previous experiment."}, "MM.1S cells": {"tested_on": "MM.1S cells", "assay": "Boron cellular accumulation by ICP-OES", "type": "cell-based, human", "conditions": "100 nM, 1.5 h", "procedure": "MM.1S cells (40×10^6 cell/ml) were cultured with vehicle (control), BTZ as a free drug (100 nM), and anti-CD38 chitosan NPs loaded with BTZ equivalent amounts to 100 nM for 1.5 h. After the treatment the cells were spun down, washed, and cell pellet was digested in nitric acid. After dilution with deionized water, samples were microwave digested and then analyzed by ICP-OES for boron content."}, "[4]": {"tested_on": "MM.1S cells co-culture with MM-derived MSP-1 stromal cell line", "assay": "Cell adhesion-mediated drug resistance, co-culture with MSP-1 stroma", "type": "cell-based, human", "conditions": "BTZ 5 nM or equivalent, 48 h", "procedure": "In addition, cell proliferation assay of MM.1S cells co-culture with or without MM-derived MSP-1 stromal cell line with vehicle (control), BTZ as a free drug (5 nM), empty chitosan NPs, non-targeted chitosan NPs loaded with BTZ equivalent amounts to 5 nM, and anti-CD38 chitosan NPs loaded with BTZ equivalent amounts to 5 nM for 48 h was analyzed."}, "[5]": {"tested_on": "MM cells cultured in normoxic (21% O2) or hypoxic (1% O2) conditions", "assay": "Hypoxia-mediated drug resistance", "type": "cell-based, human", "conditions": "BTZ 5 nM or equivalent, 48 h", "procedure": "Furthermore, the effect of vehicle (control), BTZ as a free drug (5 nM), empty chitosan NPs, non-targeted chitosan NPs loaded with BTZ equivalent amounts to 5 nM, and anti-CD38 chitosan NPs loaded with BTZ equivalent amounts to 5 nM on proliferation of MM cells cultured in normoxic (21% O2) or hypoxic (1% O2) conditions for 48 h was measured."}, "MM.1S in 3DTEBM cultures": {"tested_on": "MM.1S in 3DTEBM cultures", "assay": "Survival of MM cells in 3D tissue engineered bone marrow (3DTEBM)", "type": "cell-based, human", "conditions": "BTZ 10 nM or equivalent, 48 h", "procedure": "MM.1S (pre-labeled with Invitrogen cell tracers DiO (10 μg/ml) for 1 h) were cultured in relevant three-dimensional tissue engineered bone marrow (3DTEBM) cultures through crosslinking of fibrinogen as previously described. The effect of vehicle (control), BTZ as a free drug (10 nM), empty chitosan NPs, non-targeted chitosan NPs loaded with BTZ equivalent amounts to 10 nM, and anti-CD38 chitosan NPs loaded with BTZ equivalent amounts to 10 nM for 48 h was analyzed by flow cytometry. Higher BTZ doses (10 nM) are used in the 3DTEBM based on the known drug resistance of the cells in 3DTEBM cultures. Cell proliferation assays were performed by digestion of 3DTEBM cultures with type I collagenase (25 mg/ml for 2-3 h at 37° C.), followed by flow cytometry analysis using MACSQuant Analyzer (Miltenyi Biotec), and the data was analyzed using FlowJo program v10 (Ashland, Oreg.). Moreover, 3DTEBM cultures treated with AF633 anti-CD38 chitosan NPs loaded with BTZ equivalent amounts to 10 nM were imaged to determine NPs distribution by confocal microscopy after 24 h incubation."}, "MM1s-GFP-Luc cells": {"tested_on": "MM1s-GFP-Luc cells", "assay": "MM tumor progression and survival in vivo", "parameters": "species or system SCID mice", "conditions": "BTZ 1 mg/kg once a week", "procedure": "(§1) MM1s-GFP-Luc cells were injected into forty female, 7-week old SCID mice i.v. at the concentration of 2×10^6 cells per mouse and tumor progression was evaluated using BLI. After 4 weeks, tumor bearing mice were randomized into 4 groups of 10 animals each and treated with: (i) vehicle, (ii) BTZ as a free drug (1 mg/kg once a week), (iii) non-targeted NPs loaded with BTZ equivalent amounts to 1 mg/kg (once a week), (iv) and anti-CD38 NPs loaded with BTZ equivalent amounts to 1 mg/kg (once a week). Tumor progression was followed in the 4 groups twice a week (for 5 weeks) by BLI; moreover the survival, weight, and general health of the animals was followed. In addition, 3 mice were taken from each group 3 weeks after the beginning of the treatment, and specimens of the BM, blood smear, spleen, liver, kidney, brain, spinal-cord and intestine were fixed and pathologically evaluated for treatment efficacy and histological tissue damage."}, "[6]": {"assay": "Side effects in vivo (weight loss, hair loss, histological tissue damage)", "parameters": "species or system SCID mice", "conditions": "BTZ 1 mg/kg once a week", "procedure": "as §1"}, "MM cells [7]": {"tested_on": "MM cells", "assay": "Anti-CD38 chitosan NPs uptake mechanism (endosome co-localization, uptake inhibitors, 4° C.)", "type": "cell-based, human", "conditions": "30 min pre-incubation with inhibitor (cytochalasin D 1 μM, chlorpromazine 2 μM, nystatin 0.5 μg/ml, EGA 2.5 μM), then 2 h NPs", "procedure": "Endocytosis is critical to the uptake of NPs in order to allow toxic effects in cells. MM cells were plated on glass bottom 8 well chambers and allowed to adhere overnight. CellLight Early Endosomes-GFP BacMam 2.0 reagent (targeting rab5) was added to result in a final concentration of 30 particles per cells and allowed to incubate with the cells for 18-24 h. Cells were washed twice with PBS and incubated with AF633 anti-CD38 chitosan NPs for 24 h. Cells were again washed twice with PBS and allowed to stay in phenol red free medium for imaging live under culture conditions of 37° C. and 5% CO2 at specified time points using FV1000 confocal microscope. To understand the process of internalization of anti-CD38 chitosan NPs, MM cells were pre-treated with inhibitors of macropinocytosis and phagocytosis (cytochalasin D), clathrin-mediated endocytosis (chlorpromazine), caveolae-mediated endocytosis (nystatin), or late endocytosis (EGA), prior to exposure to anti-CD38 chitosan NPs. […] MM cells (1×10^6 cell/ml) were pre-incubated at 37° C. with no inhibitor (Ctrl), cytochalasin D 1 μM, chlorpromazine 2 μM, nystatin 0.5 μg/ml, and EGA 2.5 μM or at 4° C. as control of the active uptake for 30 min. Cells were washed with PBS and incubated with AF633 anti-CD38 chitosan NPs for 2 h. Then, cells were washed and analyzed by flow cytometry for the fluorescence intensity of AF633."}, "MM cells [8]": {"tested_on": "MM cells", "assay": "Effect of macropinocytosis and endocytosis inhibitors on survival of MM cells by MTT", "type": "cell-based", "conditions": "pre-incubation at 37° C. for 30 min; cytochalasin D 1 μM, chlorpromazine 2 μM, nystatin 0.5 μg/ml, EGA 2.5 μM"}}, "data": [{"smiles": "CC(C)C[C@H](NC(=O)[C@H](Cc1ccccc1)NC(=O)c1cnccn1)B(O)O", "note": "[free BTZ, bortezomib]", "values": [{"measurement": "killing of MM cells", "setting": "[1]", "result": 20, "unit": "%"}, {"measurement": "effect on survival of PB MNCs", "setting": "PB MNCs", "result": "no effect"}, {"measurement": "effect on cell cycle", "setting": "H929 cells [2]", "result": "induced G0-G1 arrest"}, {"measurement": "early apoptosis, late apoptosis and cell death", "setting": "H929 cells [3]", "result": "induced increase early apoptosis and no effect on late apoptosis and death"}, {"measurement": "proteasome activity inhibition", "setting": "proteasome; BTZ 5 nM or equivalent, 2 h, MM cells (Experiment 7)", "result": 50, "unit": "%"}, {"measurement": "inhibition in the proteasome activity", "setting": "proteasome; BTZ 5 nM or equivalent, without inhibition of the uptake routs (Experiment 8)", "result": "about 40%"}, {"measurement": "effect of inhibition of macropinocytosis or endocytosis pathways on proteasome activity", "setting": "proteasome", "result": "led to any significant effect"}, {"measurement": "effect of inhibition of macropinocytosis or endocytosis pathways on proteasome activity", "setting": "proteasome; listed as BTZ", "result": "did not induce any change"}, {"measurement": "accumulation of BTZ (boron content) in cells versus control", "setting": "MM.1S cells", "result": "very similar to the levels measured in control"}, {"measurement": "cell adhesion-mediated drug resistance (stroma co-culture versus mono-culture)", "setting": "[4]", "result": "induced resistance"}, {"measurement": "hypoxia-mediated drug resistance (1% O2 versus 21% O2)", "setting": "[5]", "result": "induced resistance"}, {"measurement": "killing of MM cells in the 3DTEBM", "setting": "MM.1S in 3DTEBM cultures", "result": 8, "unit": "%"}, {"measurement": "day by which all the group died", "setting": "MM1s-GFP-Luc cells", "result": "≤ 29", "unit": "days"}, {"measurement": "tumor size by BLI compared to vehicle treatment", "setting": "MM1s-GFP-Luc cells; 5 weeks", "result": "efficacious in reducing tumor size"}, {"measurement": "hair loss compared to the vehicle-treated group", "setting": "[6]", "result": "significant hair loss"}]}, {"smiles": "Cc1cccc(C)c1NC(=O)N/N=C/c1ccc(Br)cc1", "note": "[EGA]", "values": [{"measurement": "decrease of the uptake of the anti-CD38 NPs", "setting": "MM cells [7]", "result": "about 25%"}, {"measurement": "effect on cell survival", "setting": "MM cells [8]", "result": "no effect on cell survival"}]}, {"smiles": "C=C1[C@@H](C)[C@H]2[C@H](Cc3ccccc3)NC(=O)[C@]23[C@H](OC(C)=O)/C=C/[C@@](C)(O)C(=O)[C@@H](C)C/C=C/[C@H]3[C@@H]1O", "note": "[cytochalasin D]", "values": [{"measurement": "decrease of the uptake of the anti-CD38 NPs", "setting": "MM cells [7]", "result": "did not affect"}, {"measurement": "effect on cell survival", "setting": "MM cells [8]", "result": "no effect on cell survival"}]}, {"smiles": "C[C@@H]1[C@H](O)[C@@H](C)/C=C/C=C/CC/C=C/C=C/C=C/C=C/C(O[C@H]2O[C@H](C)[C@@H](O)[C@H](N)[C@@H]2O)CC2O[C@](O)(CC(O)C(O)CCC(O)CC(O)CC(O)CC(=O)O[C@H]1C)CC(O)C2C(=O)O", "note": "(stereo partly shown) [nystatin]", "values": [{"measurement": "decrease of the uptake of the anti-CD38 NPs", "setting": "MM cells [7]", "result": "about 25%"}, {"measurement": "effect on cell survival", "setting": "MM cells [8]", "result": "no effect on cell survival"}]}, {"smiles": "CN(C)CCCN1c2ccccc2Sc2ccc(Cl)cc21", "note": "[chlorpromazine]", "values": [{"measurement": "decrease of the uptake of the anti-CD38 NPs", "setting": "MM cells [7]", "result": "about 25%"}]}]}
